Reference: patent US5618726A, “Biodegradable azo dyes” (priority 1994, dated 1997)
Values belong to the molecule of their own block, whether it stands above or below them.

Experiments:
[1] = test system: P. chrysosporium ligninolytic culture; format: cell-based, Phanerochaete chrysosporium; conditions: initial 200 mg-per-liter, ten days of growth
Experimental: Decolorization of dyes in cultures were monitored at their absorption maxima at pH 4.5, or using HPLC. A Spherisorb ODS2 C18 column was used for HPLC analysis with a sequence of DMS buffer at pH 4.5 and acetonitrile as solvents (5 min 100% DMS, 15 min 100% acetonitrile, 18 min 100% acetonitrile, 19 min 100% DMS, 20 min 100% DMS, 5 min postran 100% DMS). Peaks were monitored at 260 and 450 nm. Results from spectrophotometric and HPLC methods were compared.
The initial concentration of dye was 200 mg-per-liter. Numbers represent mg-per-liter of dye remaining in the cultures.

[2] = target: T1, horseradish peroxidase type II (Armoracia rusticana, UniProt P00433); assay: Oxidation of azo dyes by horseradish peroxidase preparation; format: biochemical; conditions: pH 8, 37° C., H2O2
T1 sequence (P00433 31-338): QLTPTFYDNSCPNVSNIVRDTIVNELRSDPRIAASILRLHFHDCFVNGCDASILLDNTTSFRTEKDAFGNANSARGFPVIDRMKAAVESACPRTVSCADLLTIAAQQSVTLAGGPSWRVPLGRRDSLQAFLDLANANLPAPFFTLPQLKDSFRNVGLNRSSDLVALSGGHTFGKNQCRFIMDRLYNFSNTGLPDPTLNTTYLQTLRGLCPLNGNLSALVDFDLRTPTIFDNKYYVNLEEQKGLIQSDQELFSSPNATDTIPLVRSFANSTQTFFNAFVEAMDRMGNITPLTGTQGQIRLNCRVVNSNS
Experimental: The reaction was started with the addition of 100 μl of 50 mM H2 O2 and was followed for 1 min at 37° C. Controls were run with no addition of H2 O2 or with the addition of the hemeperoxidase inhibitor KCN (final concentration 25 μM).

[3] = test system: S. chromofuscus A11 extracellular peroxidase; assay: Oxidation of azo dyes by S. chromofuscus A11 crude enzyme preparation; format: biochemical, Streptomyces chromofuscus A11; conditions: pH 8, 37° C., H2O2
Experimental: Environ. Microbiol., 1988, 54:3057-3063. […] Microbiol. Biotechnol., 34:661-667. Incubation took place at 37° C. with shaking at 250 rpm. The culture supernatant was collected after 48 h incubation, and vacuum-filtered through Whatman no. 1 filter paper. The filtrate was concentrated approximately 40- to 50-fold by ultrafiltration through an Amicon ultrafiltration stirred cell (series no. 8000, Amicon Corp.) with a disc PM-10 filter (diameter, 76 mm). Protein in the concentrated filtrate was then precipitated from solution with 80% ammonium sulfate. The precipitate was collected by centrifugation (15 min, 10,000 rpm). The pellet was resuspended in 10 ml of 20 mM HEPES buffer (pH 8) and dialyzed overnight against the same buffer at 4° C. These preparations were then stored in 1-ml aliquots at -20° C. until used. Before using, the preparation was filtered through a NAP-25 Sephadex G-25 disposable column (Pharmacia) in order to separate a yellowish protein fraction from a pink low-molecular-weight fraction. The yellowish fraction was used as the source of enzyme. […] The reaction was started with the addition of 100 μl of 50 mM H2 O2 and was followed for 1 min at 37° C. Controls were run with no addition of H2 O2 or with the addition of the hemeperoxidase inhibitor KCN (final concentration 25 μM).

Mn(II)-peroxidase = assay: Oxidation of dyes by P. chrysosporium Mn(II)-peroxidase; format: biochemical, Phanerochaete chrysosporium; conditions: crude enzyme, conditions specific for Mn(II)-peroxidase
Experimental: (§1) The peroxidase assay was carried out using a composition having a final volume of 1.0 ml. The reaction mixture contained 250 μl of 100 mM HEPES buffer (pH 8), 500 μl of 10 mM 2,4-dichlorophenol, 100 μl of 1 mM aminoantipyrine, 50 μl enzyme preparation and 100 μl 50 mM H2 O2. The reaction was initiated by the addition of hydrogen peroxide at 37° C. One unit of peroxidase activity was expressed as the amount of enzyme required for an increase of one absorbance-unit-per-minute at 510 nm. Assays of manganese peroxidase and of ligninase from P. chrysosporium were carried out as previously described by Paszczynski et al in "Manganese peroxidase of Phanerochaete chrysosporium: Purification," Methods Enzymol. 161:264-270, incorporated herein by reference. […] Biophys., 1986, 44:750-765. Preparation and assay of ligninase and manganese peroxidase from these P. chrysosporium cultures were carried out as previously reported by Paszczynski, et al., Methods Enzymol., 1988, 161:264-270. […] Purification," Methods Enzymol. 161:264-270. […] Cycle time was 10 seconds, with the last measure after three minutes of incubation.

ligninase = assay: Oxidation of dyes by P. chrysosporium ligninase (crude preparation); format: biochemical, Phanerochaete chrysosporium; conditions: crude enzyme, conditions specific for ligninase
Experimental: as §1, with “30 seconds” for “10 seconds,”, “15 minutes. […] The reaction conditions were the same as for acid yellow 9. No decolorization” for “three minutes”, “the synthesized dyes by ligninase was detected.” for “incubation.”

[4] = test system: Phanerochaete chrysosporium; assay: Substrate removal / decolorization by P. chrysosporium culture; format: cell-based; conditions: for % Decolorization, P. chrysosporium: 14 days
Experimental: Environ. Microbiol., 1981, 42:290-296), with the addition of 75 mg adenine (6-aminopurine) and 27 mg L-phenylalanine-per-liter. This addition accelerated the growth of the fungus without inhibiting ligninase activity. […] […] Cultures were incubated at 37° C. for 7 to 15 days with shaking (250 rpm). Solid agar media were also employed.

P. chrysosporium = assay: Mineralization of 14C-labeled dyes by shaken cultures; format: cell-based, Phanerochaete chrysosporium; conditions: P. chrysosporium
Experimental: Agitated cultures containing 100,000 to 150,000 dpm of azo dye at a concentration of 200 mg/liter for P. chrysosporium and 50 mg/liter for S. chromofuscus were incubated at 37° C. for 20 days with shaking at 200 rpm. For each mineralization experiment six replicates-per-culture were run for P. chrysosporium and three replicates-per-culture for S. chromofuscus. Each culture flask contained a CO2 trap consisting of a small glass cup connected to the bottom of the rubber stopper. The cup contained 1 ml of 1N NaOH. Samples were taken every 2 days, and after each sampling cultures were flushed with 100% oxygen for 30 s. At the sampling time, the stopper was removed and the NaOH containing trapped CO2 was transferred to a 20-ml scintillation vial, and the cup was then rinsed twice with 1 ml of water. Two ml of rinse water were also transferred to the vial. Finally, 10 ml of Ecolite scintillation cocktail (ICN Biochemicals Inc., Irvine, Calif.) were added to each vial. Vials, after mixing, were stored in the dark for 24 h. The cpm of trapped radioactivity was then determined in a Packard Tri-Carb liquid scintillation analyzer, Model 1500, using the ^14 C quench standards and SIS numbers.
Either a charcoal-containing polyurethane sponge (Bio-Rad Laboratories, Richmond, Calif.) or 2-methoxyethanol was used to trap volatile organic compounds released during mineralization experiments. The sponge (1 cm^3) replaced the 1N NaOH solution in the small glass cap attached to the rubber stopper; other conditions were as before for the ^14 CO2 experiments. For scintillation counting, the charcoal sponges were dissolved in 1 ml of hyamine hydroxide contained in scintillation vials (1M solution in methanol; NEN Research Products, Boston, Mass.) held at 55° C. for 2 h. Ten ml of Ecolite scintillation cocktail were then added and the cpm was measured.
In the second procedure, cultures with CO2 traps were flushed with oxygen for 10 min, and the organic volatiles present were trapped in 10 ml of 2-methoxyethanol mixed with 10 ml Ecolite.
The removal of radioactivity from the media was determined by measuring the amount of ^14 C label in 0.1 ml of the medium at time 0 and 21 days for each culture. Uninoculated cultures were used as evaporation controls. […] At the end of each mineralization experiment, culture broths were acidified with 5 ml of 1M H3 PO4, fresh 1N NaOH was added to the trap, and the cultures were shaken overnight. No additional releases of ^14 CO2 were observed. The radioactivity assimilated by the cells was measured by solubilizing biomass harvested from each 21-day-old culture in an equal volume of hyamine hydroxide solution. Before solubilization, cells were washed three times with 50 ml of distilled water to remove adsorbed dyes. Ecolite 10 ml was added to the mixture, which was vortexed vigorously. To increase counting efficiency, the solution of biomass-hyamine-scintillation cocktail was further diluted 10 to 20 times with fresh Ecolite before counting.

[5] = beginning concentration 100 ppm
[6] = beginning concentration 150 ppm
[7] = beginning concentration 200 ppm
[8] = beginning concentration 300 ppm

SMILES: Nc1ccc2c(O)c(N=Nc3ccc(N=Nc4ccc(N=Nc5cc(S(=O)(=O)O)c6cccc(S(=O)(=O)O)c6c5)c5ccccc45)c4ccc(S(=O)(=O)O)cc34)c(S(=O)(=O)O)cc2c1 [compound 25]
- Dye remaining in the cultures, HPLC [1]: 14.86 mg-per-liter
- Dye remaining in the cultures, Spectrophotometry [1]: 9.66 mg-per-liter

SMILES: Cc1ccc(S(=O)(=O)Oc2ccc(N=Nc3ccc(-c4ccc(N=Nc5c(O)ccc6cc(S(=O)(=O)O)cc(S(=O)(=O)O)c56)c(C)c4)cc3C)cc2)cc1 [compound 21]
- Dye remaining in the cultures, HPLC [1]: 103.62 mg-per-liter
- Dye remaining in the cultures, Spectrophotometry [1]: 102.38 mg-per-liter

SMILES: CCOc1ccc(N=Nc2ccc(C=Cc3ccc(N=Nc4ccc(OCC)cc4)cc3S(=O)(=O)O)c(S(=O)(=O)O)c2)cc1 [compound 27]
- Dye remaining in the cultures, HPLC [1]: 29.42 mg-per-liter
- Dye remaining in the cultures, Spectrophotometry [1]: 28.33 mg-per-liter

SMILES: Nc1c(N=Nc2ccc(-c3ccc(N=Nc4cc(S(=O)(=O)O)c5ccccc5c4N)cc3)cc2)cc(S(=O)(=O)O)c2ccccc12 [compound 20]
- Dye remaining in the cultures, HPLC [1]: 62.20 mg-per-liter
- Dye remaining in the cultures, Spectrophotometry [1]: 52.01 mg-per-liter

SMILES: Nc1ccc2cc(S(=O)(=O)O)cc(O)c2c1N=Nc1ccc(NC(=O)Nc2ccc(N=Nc3c(N)ccc4cc(S(=O)(=O)O)cc(O)c34)c(S(=O)(=O)O)c2)cc1S(=O)(=O)O [compound 26]
- Dye remaining in the cultures, HPLC [1]: 6.98 mg-per-liter
- Dye remaining in the cultures, Spectrophotometry [1]: 4.33 mg-per-liter

SMILES: COc1ccccc1NC(=O)C(N=Nc1ccc(-c2nc3ccc(C)c(S(=O)(=O)O)c3s2)cc1S(=O)(=O)O)=C(C)O [compound 29]
- Dye remaining in the cultures, HPLC [1]: 109.39 mg-per-liter
- Dye remaining in the cultures, Spectrophotometry [1]: 108.92 mg-per-liter

- Oxidation rate of azo dyes, Horseradish peroxidase [2]: 0.07 μmoles per minute per ml
- Oxidation rate of azo dyes, S. chromofuscus peroxidase [3]: 0.10 μmoles per minute per ml
- Oxidation rate of azo dyes, P. chrysosporium Mn-peroxidase (Mn(II)-peroxidase): 0.15 μmoles per minute per ml
- Oxidation rate of azo dyes, P. chrysosporium Ligninase (ligninase): 0.32 μmoles per minute per ml
- % Decolorization, P. chrysosporium ([4]; initial concn 150 ppm): 93%
- % Decolorization, P. chrysosporium ([4]; initial concn 300 ppm): 94%
SMILES: CN(C)c1ccc(N=Nc2ccc(S(=O)(=O)O)cc2)cc1 [compound 14]
- Concentration of substrate after ten days cultivation with P. chrysosporium [4, 5]: 4.411 ppm
- Concentration of substrate after ten days cultivation with P. chrysosporium [4, 6]: 11.843 ppm
- Concentration of substrate after ten days cultivation with P. chrysosporium [4, 7]: 15.529 ppm
- Concentration of substrate after ten days cultivation with P. chrysosporium [4, 8]: 36.800 ppm

- Oxidation rate of azo dyes, Horseradish peroxidase [2]: 0.06 μmoles per minute per ml
- Oxidation rate of azo dyes, S. chromofuscus peroxidase [3]: 0.06 μmoles per minute per ml
- Oxidation rate of azo dyes, P. chrysosporium Mn-peroxidase (Mn(II)-peroxidase): 0.00 μmoles per minute per ml
- Oxidation rate of azo dyes, P. chrysosporium Ligninase (ligninase): 0.25 μmoles per minute per ml
- % Decolorization, P. chrysosporium ([4]; initial concn 150 ppm): 61%
- % Decolorization, P. chrysosporium ([4]; initial concn 300 ppm): 55%
SMILES: COc1ccc(N=Nc2ccc(S(=O)(=O)O)cc2)cc1 [compound 16]
- Concentration of substrate after ten days cultivation with P. chrysosporium [4, 5]: 67.801 ppm
- Concentration of substrate after ten days cultivation with P. chrysosporium [4, 6]: 92.683 ppm
- Concentration of substrate after ten days cultivation with P. chrysosporium [4, 7]: 179.300 ppm
- Concentration of substrate after ten days cultivation with P. chrysosporium [4, 8]: 219.079 ppm

SMILES: O=S(=O)(O)c1ccc(N=Nc2c(O)ccc3ccccc23)c2ccccc12 [compound 23]
- Dye remaining in the cultures, HPLC [1]: 72.43 mg-per-liter
- Dye remaining in the cultures, Spectrophotometry [1]: 89.27 mg-per-liter

SMILES: O=S(=O)(O)[14c]1[14cH][14cH][14c](N=Nc2c(O)ccc3ccccc23)[14cH][14cH]1 [compound 36]
- Degradation began earlier than dye 37 (P. chrysosporium): 2 days
- Degradation relative to dye 37 (P. chrysosporium; 21-day incubation): 2.5 times

SMILES: COc1cc(-c2ccc(N=Nc3c(S(=O)(=O)O)cc4cc(S(=O)(=O)O)cc(N)c4c3O)c(OC)c2)ccc1N=Nc1c(S(=O)(=O)O)cc2cc(S(=O)(=O)O)cc(N)c2c1O [compound 22]
- Dye remaining in the cultures, HPLC [1]: 12.28 mg-per-liter
- Dye remaining in the cultures, Spectrophotometry [1]: 7.64 mg-per-liter
